This note sets out measurements from patent US20040122109A1, “Preparation for hair and/or scalp” (priority 2001, published 2004).

Assay [1] has as its system C3H mice. As to the kind of experiment: Hair restoration test: hair growth score on the shaved back of C3H mice. It counts as in vivo, mouse. The following applies: for Hair growth score of C3H mouse, before application: 7-week old male C3H mice in telogen, shaved back, baseline, score 1-5 (1 = skin pink, 5 = hair growth in 60% or more); for Hair growth score of C3H mouse, before application / Hair growth score of C3H mouse, after application: n = 7, Average ± S.D.; for Hair growth score of C3H mouse, after application: 10% in PEG1000 applied to shaved portion once a day, total of 14 times, score 1-5 (higher = more hair growth); for Hair restoration activity (in words): C3H mice, 10% in PEG1000, 14 applications. The text has this: The back of each of 7-week old male C3H mice in the telogen period of the hair cycle was carefully shaved, and then groups of seven mice each without wounds at the backs were subjected to a test. In a control group, only polyethylene glycol 1000 (PEG1000) used as a base was applied to each mouse, while in an evaluation group, 10% oxidized coenzyme Q10 or 10% reduced coenzyme Q10 (reduced coenzyme Q10:oxidized coenzyme Q10=95:5) was applied to the shaved portion once a day (total of 14 times). After the application, the back of each mouse was evaluated based on the scores below to evaluate the hair restoration activity of a compound.
2; Less than 30% of the shaved portion was discolored to gray.

Assay [2] deals with hairless rats. As to the kind of experiment: Prevention of hair removal: hair removal score of hairless rats. It counts as in vivo, rat. The following applies: for Hair removal score of hairless rat, before application: 4-week old male hairless rats in pilose period, baseline, score 1-5 (1 = no hair removal, 5 = hair removal in 60% or more); for Hair removal score of hairless rat, before application / Hair removal score of hairless rat, 71 days after: n = 5, Average ± S.D.; for Hair removal score of hairless rat, 71 days after: 10% in PEG1000 applied to back once a day for 12 days, 71st day after application was terminated, score 1-5 (lower = less hair removal); for Activity of preventing hair removal (in words): hairless rats, 10% in PEG1000, once a day for 12 days. The text has this: 4-week old male hairless rats in the pilose period were used for evaluating the activity of preventing hair removal. The same samples as those used in Example 1 were used. In each group of five hairless rats, each of the samples was applied to the back of each rat once a day for 12 days, and then a hair removal state was observed after the application was stopped. The hair removal state was observed based on the following scores.
1; No hair removal was observed.
2; Hair became short in 30% or less of the applied region.

`COC1=C(OC)C(=O)C(C/C=C(\C)CC/C=C(\C)CC/C=C(\C)CC/C=C(\C)CC/C=C(\C)CC/C=C(\C)CC/C=C(\C)CC/C=C(\C)CC/C=C(\C)CCC=C(C)C)=C(C)C1=O` [Oxidized coenzyme Q10, oxidized coenzyme Q10]: in assay [1], the “Hair growth score of C3H mouse, before application” value was 1.0 ± 0.00; the “Hair growth score of C3H mouse, after application” value stood at 2.7 ± 0.35; the “Hair restoration activity (in words)” value is given as “a hair restoration activity was observed”. Also, in assay [2], the “Hair removal score of hairless rat, before application” value turned out to be 1.0 ± 0.00; the “Hair removal score of hairless rat, 71 days after” value is 3.6 ± 0.24; the “Activity of preventing hair removal (in words)” value is “has the activity of preventing hair removal”.

For the compound `COc1c(O)c(C)c(C/C=C(\C)CC/C=C(\C)CC/C=C(\C)CC/C=C(\C)CC/C=C(\C)CC/C=C(\C)CC/C=C(\C)CC/C=C(\C)CC/C=C(\C)CCC=C(C)C)c(O)c1OC` [Reduced coenzyme Q10, reduced coenzyme Q10], in assay [1], the “Hair growth score of C3H mouse, before application” value is 1.0 ± 0.00; the “Hair growth score of C3H mouse, after application” value is on record as 3.2 ± 0.64; the “Hair restoration activity (in words)” value is on record as “a higher hair restoration activity was observed”. In assay [2], the “Hair removal score of hairless rat, before application” value came to 1.0 ± 0.00; the “Hair removal score of hairless rat, 71 days after” value is listed as 3.0 ± 0.71; the “Activity of preventing hair removal (in words)” value is on record as “has the activity of preventing hair removal”.
